Experimental data: patent US11744868B1, “Inonotus obliquus dextran, preparation method and application thereof” (Jilin Agricultural University, priority 2022, dated 2023)
Structures can show the parent of a compound that is named as a salt.

Key:
[1] = tested on: AsPC-1 (human metastatic pancreatic adenocarcinoma cells) cells; assay: CCK-8 cell viability of AsPC-1 cells; assay type: cell-based; conditions: for Cell vitality (%): 24 h, n = 3
Experimental: Therapeutic effects of two drugs, Inonotus Obliquus polysaccharide and gemcitabine hydrochloride, alone and in combination, on AsPC-1 (human metastatic pancreatic adenocarcinoma cells) cells are investigated respectively. Cell culture: AsPC-1 (human metastatic pancreatic adenocarcinoma cells) cells are resuscitated in culture flasks and incubated at 37° C. in a 5% CO2 incubator; the cells are adhered to the wall and then subjected to passaging or […] operations; inoculation: when the cells are in logarithmic growth phase, they are washed twice with PBS buffer (phosphate concentration 0.01 M, pH 7.2-7.4); the cells are digested by 1 mL of 0.25% trypsin-EDTA (ethylene diamine tetraacetic acid) for 1-2 min, then 2 mL of RPMI-1640 culture solution containing 10% fetal bovine serum and 1% of double antibodies (penicillin and streptomycin) is added to terminate the digestion, followed by centrifuging at 1,000 revolutions per minute (rpm) for 3 min; then the wall-adhered cells are completely blown down and enumerated by hemocytometer plates, where the cells are inoculated in an 96-well plate in an amount of 100 μL per well, with a controlled number of 5,000 cells per well, and incubated in an incubator for 24 h. CCK-8 experiment dosing: […] Calculation of cell viability for each group:Cell viability (%)=(ODsample−ODblank)×100/(ODcontrol−ODblank)

AsPC-1 cell = conditions: 0, 200 μg/mL, 400 μg/mL, 800 ng/mL; 24 h incubation; FIG. 9
Experimental: 1.2 experimental cell line AsPC-1 of human metastatic pancreatic cancer is purchased from American Type Culture Collection (ATCC);
2.1 human metastatic pancreatic cancer cells are cultured in RPMI-1640 culture medium (containing penicillin 100 U/mL, streptomycin 100 U/mL and 10% fetal bovine serum) at 37° C. in a 5% CO2 constant temperature incubator, and cells of logarithmic growth phase are taken for the experiment;

Compound	Cell vitality (%) ([1]; 0 μg/mL IOP1-1 + 20 μg/mL gemcitabine hydrochloride)	Cell vitality (%) ([1]; 400 μg/mL IOP1-1 + 0 μg/mL gemcitabine hydrochloride)	Cell vitality (%) ([1]; 800 μg/mL IOP1-1 + 0 μg/mL gemcitabine hydrochloride)	therapeutic effect on AsPC-1 tumor cells / tumor inhibition ([1]; summary in words of Table 2)	mitochondrial membrane potential (AsPC-1 cell)
Nc1ccn([C@@H]2O[C@H](CO)[C@@H](O)C2(F)F)c(=O)n1 [gemcitabine hydrochloride, reference compound]	66.1 ± 5.49	–	–	–	–
Inonotus Obliquus dextran [IOP1-1]	–	78.2 ± 2.24	66.5 ± 4.12	excellent	decreases as the concentration of drug administered increases
